The values that follow come from article PMC9330922, “Genomewide Analysis and Biological Characterization of Cathelicidins with Potent Antimicrobial Activity and Low Cytotoxicity from Three Bat Species” (Antibiotics, 2022).

What all share (test): microbe, parasite or virus in culture
Common to all, as to format: cell-based

Experiment [1] concerns Cryptococcus cuniculi KCTC 17232. The settings on record: WST colorimetric. As to the method:
(§1) The antifungal activities of the peptides were evaluated against two yeast fungi, C. albicans KCTC 7270 and C. cuniculi KCTC 17232, and a mold fungus, M. hiemalis KCTC 26779. C. albicans and C. cuniculi were cultured in yeast mold broth (YMB; BD Science) agar at 35 °C and 25 °C, respectively. Cells were prepared in YMB for C. albicans and RPMI 1640 medium (with l-glutamine, without phenol red and sodium bicarbonate, Sigma Aldrich, Saint Louis, MO, USA) and adjusted to pH 7.0 with 0.165 M 3-(N-morpholino) propanesulfonic acid (MOPS) (iNtRON Biotechnology, Seoul, Korea), as previously described for C. cuniculi. According to the 0.5 McFarland standard, cells at 1.5 × 10^5 CFU/well were seeded into a 96-well plate containing 180 µL of fresh medium. Subsequently, peptides at final concentrations of 5–45 ug/mL (1.2–19.3 μM) peptides were added to each well. Ciclopirox (≥98% (HPLC), Sigma Aldrich) was used as a reference for the antifungal activity. The antifungal assay was conducted in the same manner as the antibacterial assay described above, according to the manufacturer’s protocol. Briefly, C. albicans and C. cuniculi were incubated at 35 °C for 6 h and 25 °C for 47 h, respectively, and 10 µL of the coloring reagent was added and further incubated for 18 h and 25 h. The MIC values were determined in the same way as for the antibacterial assay.

The subject of experiment [2] is Candida albicans KCTC 7270. The settings on record: WST colorimetric, YMB. As to the method:
as §1

Experiment [3] has as its system Mucor hiemalis KCTC 26779. The note with it: KCTC26779, concentration not given, peptides tested at 20, 40, and 80 µg/mL, fluvastatin sodium 70 µM, read-out: rate of metabolic inhibition. On the procedure: To evaluate the antifungal activity of peptides against M. hiemalis, the metabolic activity of hyphae was measured using the same colorimetric assay as described above, with slight modifications to a previous study. Briefly, M. hiemalis was streaked onto malt extract broth (BD Biosciences) agar in a Petri dish and cultured at 25 °C for seven days. Then, conidia were collected from the dish by adding phosphate buffered saline (PBS) containing 0.05% Tween-80 (Sigma Aldrich) and filtered through sterilized 40 um cell strainer (SPL Life Science, Pocheon, Korea) to remove hyphae. After washing twice with PBS and centrifugation, 5 × 10^4 conidia were counted using a hemocytometer, suspended in 50 µL of RPMI 1640 as described above, and seeded in wells of a 96-well plate. After 16 h of incubation at 25 °C for hyphae formation, the plate was centrifuged at 3000× g and the media were changed. The peptides were then added at final concentrations of 20, 40, and 80 µg/mL. Fluvastatin sodium (70 µM; Sigma-Aldrich) was used as a reference for antifungal activity. […] The absorbance at 450 nm (for the treated group and control) and 650 nm (for the background) was measured for each well using a microplate reader (xMarkTM spectrophotometer; Bio-Rad). The metabolic activity of the fungal cells was calculated using the following equation. […]

Where two headings read alike, the source gives them in different places.

As for `Cc1cc(C2CCCCC2)n(O)c(=O)c1` [Ciclopirox], the MIC in experiment [1] (Cryptococcus, KCTC17232, value in brackets, RPMI 1640 with MOPS pH 7.0, 25 °C 47 h + 25 h, read-out: MIC) is 2.4 µM; in experiment [1] (RPMI 1640 with MOPS pH 7.0, 1.5 × 10^5 CFU/well, 25 °C 47 h + 25 h coloring reagent), 0.5 µg/mL; in experiment [2] (Candida albicans, KCTC7270, value in brackets, 35 °C 6 h + 18 h, read-out: MIC (converted)) it was 16.9 µM; in experiment [2] (1.5 × 10^5 CFU/well, 35 °C 6 h + 18 h coloring reagent), 3.5 µg/mL.

In general, inhibition refers to how much of the control response was suppressed. For `CC(C)n1c(/C=C/C(O)CC(O)CC(=O)O)c(-c2ccc(F)cc2)c2ccccc21` (centres unmarked) [fluvastatin sodium, Fluvastatin sodium], the inhibition at 70 µM in experiment [3] is roughly 80%.
